Assay: Oral pharmacokinetic profile of CBD and THC complexes in rats (plasma concentration by GC-MS/MS)
Settings: per os single gavage, fasted male rats

Row | SMILES | THC average circulating levels in plasma (20 mg/kg THC-based dose) | CBD Cmax (average) (20 mg/kg CBD-based dose, plasma) [ng/mL]
1 | CCCCCc1cc(O)c2c(c1)OC(C)(C)[C@@H]1CCC(C)=C[C@@H]21 [pure THC, tetrahydrocannabinol] | mostly below the limit of quantitation | –
2 | C=C(C)[C@@H]1CCC(C)=C[C@H]1c1c(O)cc(CCCCC)cc1O [CBD, cannabidiol] | – | 12.7
